Values of other authors as cited in patent US11395812B2, “Docetaxel albumin nanoparticle pharmaceutical composition, preparation method therefor and use thereof” (SICHUAN KELUN PHARMACEUTICAL RESEARCH INSTITUTE CO. LTD., priority 2015, dated 2022).

Molecular target: T1, recombinant human cytochrome P4501B1 (hCYP1B1) (Homo sapiens, UniProt Q16678)
T1 sequence (Q16678 1-543): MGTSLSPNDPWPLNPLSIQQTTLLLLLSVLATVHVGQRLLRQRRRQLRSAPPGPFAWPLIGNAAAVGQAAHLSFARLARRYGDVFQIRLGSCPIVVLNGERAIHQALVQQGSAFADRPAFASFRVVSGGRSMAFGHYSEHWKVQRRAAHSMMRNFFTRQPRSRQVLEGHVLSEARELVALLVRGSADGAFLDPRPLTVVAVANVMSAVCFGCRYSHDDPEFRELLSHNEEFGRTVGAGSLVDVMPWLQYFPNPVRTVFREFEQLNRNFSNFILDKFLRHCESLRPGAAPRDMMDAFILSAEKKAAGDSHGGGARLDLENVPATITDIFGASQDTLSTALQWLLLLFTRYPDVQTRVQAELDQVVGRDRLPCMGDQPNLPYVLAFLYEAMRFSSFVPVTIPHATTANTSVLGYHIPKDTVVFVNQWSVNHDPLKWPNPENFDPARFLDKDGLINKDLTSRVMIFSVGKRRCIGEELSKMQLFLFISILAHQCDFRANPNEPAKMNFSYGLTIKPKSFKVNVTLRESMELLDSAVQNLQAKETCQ
Conditions: in vitro test

increase of the activity of hCYP1B1: more than 7 times
SMILES: CC(=O)O[C@@]12CO[C@@H]1C[C@@H](O)[C@@]1(C)C(=O)[C@H](O)C3=C(C)[C@@H](OC(=O)[C@H](O)[C@@H](NC(=O)OC(C)(C)C)c4ccccc4)C[C@@](O)([C@@H](OC(=O)c4ccccc4)[C@H]21)C3(C)C [7-epi-docetaxel]
